In US11077100B2, “Tetrahydroquinoline derivatives as P2X7 receptor antagonists” (RaQualia Pharma Inc., priority 2017, dated 2021):

Tests used:
[1] = biological target: human P2X7 (Homo sapiens (Human), UniProt Q99572); assay: Human P2X7 functional assay (Ca2+ influx, Fluo-4, FDSS); format: cell-based; details: antagonistic activity with respect to the human P2X7 receptor; BzATP final concentration 80 microM
Method in brief: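 HEK293 cells stably expressing C-terminally FLAG-tagged human P2X7, loaded with Fluo-4. Compounds were preincubated for 10 min at room temperature, then 80 μM BzATP (final) was added and Ca2+ fluorescence read at 540 nm (480 nm excitation) by FDSS. IC50 values come from 7-point curves, duplicate wells.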

[2] = biological target: rat P2X7 (Rattus norvegicus (Rat), UniProt Q64663); assay: Rat P2X7 functional assay (Ca2+ influx, Fluo-4, FDSS); format: cell-based; details: HEK293 cells stably expressing rat P2X7; BzATP final 10 microM; 7-point dose-response; read-out: Antagonistic activities with respect to the rat P2X7 receptor (IC50)
rat P2X7, sequence (Q64663 whole entry): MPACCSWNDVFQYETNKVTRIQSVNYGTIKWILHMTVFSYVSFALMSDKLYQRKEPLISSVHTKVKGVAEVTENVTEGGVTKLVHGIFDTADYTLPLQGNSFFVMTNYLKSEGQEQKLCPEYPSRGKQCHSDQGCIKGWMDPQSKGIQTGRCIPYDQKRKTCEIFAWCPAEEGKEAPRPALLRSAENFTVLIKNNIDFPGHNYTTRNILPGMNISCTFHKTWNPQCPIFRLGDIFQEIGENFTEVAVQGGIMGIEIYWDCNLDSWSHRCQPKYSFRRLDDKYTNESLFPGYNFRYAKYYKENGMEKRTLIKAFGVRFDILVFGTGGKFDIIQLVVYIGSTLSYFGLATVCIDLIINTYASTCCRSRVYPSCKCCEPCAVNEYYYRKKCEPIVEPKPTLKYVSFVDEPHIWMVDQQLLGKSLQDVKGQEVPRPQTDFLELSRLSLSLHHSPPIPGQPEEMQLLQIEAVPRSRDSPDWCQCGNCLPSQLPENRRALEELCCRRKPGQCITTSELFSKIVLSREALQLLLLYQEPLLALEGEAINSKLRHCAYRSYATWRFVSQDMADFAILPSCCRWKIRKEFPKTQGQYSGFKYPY
Method in brief: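 HEK293 cells stably expressing rat P2X7 (5,000/well, plated 24 h before) loaded with Fluo-4; compounds preincubated 10 min at room temperature, then Ca2+ rise after 10 microM BzATP (final) read on FDSS (480/540 nm). IC50 from 7-point curves, duplicate wells.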

human P2X7, sequence (Q99572 whole entry): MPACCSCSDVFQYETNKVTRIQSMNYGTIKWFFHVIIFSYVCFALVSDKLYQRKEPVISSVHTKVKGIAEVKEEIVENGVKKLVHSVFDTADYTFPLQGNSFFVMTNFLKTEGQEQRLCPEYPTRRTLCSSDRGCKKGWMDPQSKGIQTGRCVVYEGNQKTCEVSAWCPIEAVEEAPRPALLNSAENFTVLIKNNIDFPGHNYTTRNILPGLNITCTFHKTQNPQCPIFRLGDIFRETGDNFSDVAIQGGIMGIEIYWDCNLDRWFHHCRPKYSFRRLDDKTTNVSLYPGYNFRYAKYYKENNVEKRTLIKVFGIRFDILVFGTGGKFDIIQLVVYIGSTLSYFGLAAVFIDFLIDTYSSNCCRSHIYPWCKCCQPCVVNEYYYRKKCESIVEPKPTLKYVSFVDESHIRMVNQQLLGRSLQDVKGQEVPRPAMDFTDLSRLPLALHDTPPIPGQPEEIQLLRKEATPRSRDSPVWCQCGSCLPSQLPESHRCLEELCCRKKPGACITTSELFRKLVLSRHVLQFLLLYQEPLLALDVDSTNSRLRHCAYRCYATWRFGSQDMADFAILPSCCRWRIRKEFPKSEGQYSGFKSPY

Row | IC50 [1] | IC50 [2] | SMILES
1 | 50 to 100 nM | < 1000 nM | O=C(NCc1cc(F)cc(Cl)c1)[C@]1(F)CC[C@H](O)c2ncccc21 [Example 203, (5S,8S)-N-(3-chloro-5-fluorobenzyl)-5-fluoro-8-hydroxy-5,6,7,8-tetrahydroquinoline-5-carboxamide]
2 | 50 to 100 nM | < 1000 nM | O=C(NCc1cccc(Cl)c1)[C@]1(F)CC[C@H](O)c2ncccc21 [Example 205, (5S,8S)-N-(3-chlorobenzyl)-5-fluoro-8-hydroxy-5,6,7,8-tetrahydroquinoline-5-carboxamide]
3 | 101 to 300 nM | < 1000 nM | O=C(NCc1ccc(Cl)c(F)c1)[C@]1(F)CC[C@H](O)c2ncccc21 [Example 206, (5S,8S)-N-(4-chloro-3-fluorobenzyl)-5-fluoro-8-hydroxy-5,6,7,8-tetrahydroquinoline-5-carboxamide]
4 | 101 to 300 nM | < 1000 nM | O=C(NCc1cccc(F)c1F)[C@]1(F)CC[C@H](O)c2ncccc21 [Example 208, (5S,8S)-N-(2,3-difluorobenzyl)-5-fluoro-8-hydroxy-5,6,7,8-tetrahydroquinoline-5-carboxamide]
5 | 301 to 1000 nM | < 1000 nM | O=C(NCc1cc(F)cc(F)c1)[C@]1(F)CC[C@H](O)c2ncccc21 [Example 221, (5S,8S)-N-(3,5-difluorobenzyl)-5-fluoro-8-hydroxy-5,6,7,8-tetrahydroquinoline-5-carboxamide]
6 | < 50 nM | < 1000 nM | O=C(NC1COc2cc(Cl)cc(Cl)c21)[C@]1(F)CC[C@H](O)c2ncccc21 (stereo partly drawn) [Example 229, (5S,8S)-N-(4,6-dichloro-2,3-dihydrobenzofuran-3-yl)-5-fluoro-8-hydroxy-5,6,7,8-tetrahydroquinoline-5-carboxamide]
7 | < 50 nM | < 1000 nM | O=C(NC1CCOc2cc(Cl)cc(Cl)c21)[C@]1(F)CC[C@H](O)c2ncccc21 (stereo partly drawn) [Example 230, (5S,8S)-N-(5,7-dichlorochroman-4-yl)-5-fluoro-8-hydroxy-5,6,7,8-tetrahydroquinoline-5-carboxamide]
8 | < 50 nM | < 1000 nM | CC(NC(=O)[C@]1(F)CC[C@H](O)c2ncccc21)C12CC3CC(CC(C3)C1)C2 (stereo partly drawn) [Example 231, (5S,8S)-N-(1-(adamantan-1-yl)ethyl)-5-fluoro-8-hydroxy-5,6,7,8-tetrahydroquinoline-5-carboxamide]
9 | < 50 nM | < 1000 nM | O=C(NCC(c1ccc(Cl)cc1)N1CCC(F)(F)CC1)[C@]1(F)CC[C@H](O)c2ncccc21 (stereo partly drawn) [Example 232, (5S,8S)-N-(2-(4-chlorophenyl)-2-(4,4-difluoropiperidin-1-yl)ethyl)-5-fluoro-8-hydroxy-5,6,7,8-tetrahydroquinoline-5-carboxamide]
10 | 101 to 300 nM | < 1000 nM | O=C(NC1COc2ccccc2C1)[C@]1(F)CC[C@H](O)c2ncccc21 (stereo partly drawn) [Example 233, (5S,8S)-N-(chroman-3-yl)-5-fluoro-8-hydroxy-5,6,7,8-tetrahydroquinoline-5-carboxamide]
11 | 301 to 1000 nM | < 1000 nM | CC(CNC(=O)[C@]1(F)CC[C@H](O)c2ncccc21)c1ccc(Cl)cc1 (stereo partly drawn) [Example 234, (5S,8S)-N-(2-(4-chlorophenyl)propyl)-5-fluoro-8-hydroxy-5,6,7,8-tetrahydroquinoline-5-carboxamide]
12 | < 50 nM | < 1000 nM | C[C@@H](NC(=O)[C@]1(F)CC[C@H](O)c2ncccc21)c1ccc(F)cc1Cl [Example 237, (5S,8S)-N-((R)-1-(2-chloro-4-fluorophenyl)ethyl)-5-fluoro-8-hydroxy-5,6,7,8-tetrahydroquinoline-5-carboxamide]
13 | < 50 nM | < 1000 nM | O=C(NC1CC1c1ccc(Cl)cc1Cl)[C@]1(F)CC[C@H](O)c2ncccc21 (stereo partly drawn) [Example 238, (5S,8S)-N-((trans)-2-(2,4-dichlorophenyl)cyclopropyl)-5-fluoro-8-hydroxy-5,6,7,8-tetrahydroquinoline-5-carboxamide]
14 | 101 to 300 nM | < 1000 nM | C[C@H](NC(=O)[C@]1(F)CC[C@H](O)c2ncccc21)c1ccc(F)cc1Cl [Example 239, (5S,8S)-N-((S)-1-(2-chloro-4-fluorophenyl)ethyl)-5-fluoro-8-hydroxy-5,6,7,8-tetrahydroquinoline-5-carboxamide]
15 | 301 to 1000 nM | < 1000 nM | O=C(NCC1(c2ccc(Cl)cc2Cl)CCOCC1)[C@]1(F)CC[C@H](O)c2ncccc21 [Example 240, (5S,8S)-N-((4-(2,4-dichlorophenyl)tetrahydro-2H-pyran-4-yl)methyl)-5-fluoro-8-hydroxy-5,6,7,8-tetrahydroquinoline-5-carboxamide]
16 | < 50 nM | < 1000 nM | O=C(NCc1ccc(Cl)cc1Cl)[C@]1(F)CC[C@H](O)c2ncc(F)cc21 [Example 241, (5S,8S)-N-(2,4-dichlorobenzyl)-3,5-difluoro-8-hydroxy-5,6,7,8-tetrahydroquinoline-5-carboxamide]
17 | < 50 nM | < 1000 nM | O=C(NCc1ccc(F)cc1Cl)[C@]1(F)CC[C@H](O)c2ncc(F)cc21 [Example 242, (5S,8S)-N-(2-chloro-4-fluorobenzyl)-3,5-difluoro-8-hydroxy-5,6,7,8-tetrahydroquinoline-5-carboxamide]
18 | < 50 nM | < 1000 nM | O=C(NCc1ccc(Cl)cc1Cl)[C@]1(F)CC[C@H](O)c2c1ccc[n+]2[O-] [Example 245, (5S,8S)-5-((2,4-dichlorobenzyl)carbamoyl)-5-fluoro-8-hydroxy-5,6,7,8-tetrahydroquinoline 1-oxide]
19 | < 50 nM | < 1000 nM | O=C1CC[C@](F)(C(=O)NCc2cccc(C(F)(F)F)c2Cl)c2cccnc21 [Example 246, (R)-N-(2-chloro-3-(trifluoromethyl)benzyl)-5-fluoro-8-oxo-5,6,7,8-tetrahydroquinoline-5-carboxamide]
20 | < 50 nM | < 1000 nM | O=C1CC[C@@](F)(C(=O)NCc2cccc(C(F)(F)F)c2Cl)c2cccnc21 [Example 247, (S)-N-(2-chloro-3-(trifluoromethyl)benzyl)-5-fluoro-8-oxo-5,6,7,8-tetrahydroquinoline-5-carboxamide]
21 | < 50 nM | < 1000 nM | O=C1CC[C@@](F)(C(=O)NCc2ccc(Cl)cc2Cl)c2cccnc21 [Example 248, (S)-N-(2,4-dichloro-benzyl)-5-fluoro-8-oxo-5,6,7,8-tetrahydroquinoline-5-carboxamide]
22 | 50 to 100 nM | < 1000 nM | O=C1CC[C@@](F)(C(=O)NCc2ccc(F)cc2Cl)c2cccnc21 [Example 249, (S)-N-(2-chloro-4-fluorobenzyl)-5-fluoro-8-oxo-5,6,7,8-tetra-hydroquinoline-5-carboxamide]
23 | 101 to 300 nM | < 1000 nM | O=C1CC[C@@](F)(C(=O)NCc2cccc(F)c2Cl)c2cccnc21 [Example 250, (S)-N-(2-chloro-3-fluorobenzyl)-5-fluoro-8-oxo-5,6,7,8-tetrahydro-quinoline-5-carboxamide]
24 | < 50 nM | < 1000 nM | O=C1CC[C@@](F)(C(=O)NCc2c(F)cc(Cl)cc2Cl)c2cccnc21 [Example 251, (S)-N-(2,4-dichloro-6-fluorobenzyl)-5-fluoro-8-oxo-5,6,7,8-tetrahydro-quinoline-5-carboxamide]
